Experimental data as given in ChEMBL document CHEMBL2380212, “Synthesis, single crystal and antitumor activities of benzimidazole-quinazoline hybrids” (Bioorg Med Chem Lett, 2013).

How the values were obtained:
Format in all cases: functional
MDA-MB-468 = experiment: Cytotoxicity against human MDA-MB-468 cells at 10 uM after 48 hrs by SRB assay; conditions: MDA-MB-468, 48 h, read-out: GI
BT-549 = experiment: Cytotoxicity against human BT549 cells at 10 uM after 48 hrs by SRB assay; conditions: BT-549, 48 h, read-out: GI
T47D = experiment: Cytotoxicity against human T47D cells at 10 uM after 48 hrs by SRB assay; conditions: read-out: GI
MCF7 = experiment: Cytotoxicity against human MCF7 cells at 10 uM after 48 hrs by SRB assay; conditions: MCF7, 48 h, read-out: GI
DU-145 = experiment: Cytotoxicity against human DU145 cells at 10 uM after 48 hrs by SRB assay; conditions: DU-145, 48 h, read-out: GI
UO-31 = experiment: Cytotoxicity against human UO31 cells at 10 uM after 48 hrs by SRB assay; conditions: UO-31, 48 h, read-out: GI
PC-3 = experiment: Cytotoxicity against human PC3 cells at 10 uM after 48 hrs by SRB assay; conditions: PC-3, 48 h, read-out: GI
TK-10 = experiment: Cytotoxicity against human TK10 cells at 10 uM after 48 hrs by SRB assay; conditions: TK-10, 48 h, read-out: GI
RXF 393 = experiment: Cytotoxicity against human RXF393 cells at 10 uM after 48 hrs by SRB assay; conditions: RXF 393, 48 h, read-out: GI
CAKI-1 = experiment: Cytotoxicity against human Caki1 cells at 10 uM after 48 hrs by SRB assay; conditions: CAKI-1, 48 h, read-out: GI
ACHN = experiment: Cytotoxicity against human ACHN cells at 10 uM after 48 hrs by SRB assay; conditions: read-out: GI
A498 = experiment: Cytotoxicity against human A498 cells at 10 uM after 48 hrs by SRB assay; conditions: A498, 48 h, read-out: GI
786-0 = experiment: Cytotoxicity against human 786-0 cells at 10 uM after 48 hrs by SRB assay; conditions: 786-0, 48 h, read-out: GI
NCI/ADR-RES = experiment: Cytotoxicity against human NCI/ADR-RES cells at 10 uM after 48 hrs by SRB assay; conditions: read-out: GI
OVCAR-4 = experiment: Cytotoxicity against human OVCAR4 cells at 10 uM after 48 hrs by SRB assay; conditions: OVCAR-4, 48 h, read-out: GI
OVCAR-3 = experiment: Cytotoxicity against human OVCAR3 cells at 10 uM after 48 hrs by SRB assay; conditions: OVCAR-3, 48 h, read-out: GI
UACC-62 = experiment: Cytotoxicity against human UACC62 cells at 10 uM after 48 hrs by SRB assay; conditions: UACC-62, 48 h, read-out: GI
UACC-257 = experiment: Cytotoxicity against human UACC257 cells at 10 uM after 48 hrs by SRB assay; conditions: UACC-257, 48 h, read-out: GI
SK-MEL-28 = experiment: Cytotoxicity against human SK-MEL-28 cells at 10 uM after 48 hrs by SRB assay; conditions: SK-MEL-28, 48 h, read-out: GI
SK-MEL-5 = experiment: Cytotoxicity against human SK-MEL-5 cells at 10 uM after 48 hrs by SRB assay; conditions: SK-MEL-5, 48 h, read-out: GI
SK-MEL-2 = experiment: Cytotoxicity against human SK-MEL-2 cells at 10 uM after 48 hrs by SRB assay; conditions: SK-MEL-2, 48 h, read-out: GI
M14 = experiment: Cytotoxicity against human M14 cells at 10 uM after 48 hrs by SRB assay; conditions: M14, 48 h, read-out: GI
LOX IMVI = experiment: Cytotoxicity against human LOXIMVI cells at 10 uM after 48 hrs by SRB assay; conditions: read-out: GI
SNB-19 = experiment: Cytotoxicity against human SNB19 cells at 10 uM after 48 hrs by SRB assay; conditions: SNB-19, 48 h, read-out: GI
SF-295 = experiment: Cytotoxicity against human SF295 cells at 10 uM after 48 hrs by SRB assay; conditions: SF-295, 48 h, read-out: GI
SF-539 = experiment: Cytotoxicity against human SF539 cells at 10 uM after 48 hrs by SRB assay; conditions: SF-539, 48 h, read-out: GI
SF-268 = experiment: Cytotoxicity against human SF268 cells at 10 uM after 48 hrs by SRB assay; conditions: SF-268, 48 h, read-out: GI
SW-620 = experiment: Cytotoxicity against human SW620 cells at 10 uM after 48 hrs by SRB assay; conditions: SW-620, 48 h, read-out: GI
HT-29 = experiment: Cytotoxicity against human HT-29 cells at 10 uM after 48 hrs by SRB assay; conditions: HT-29, 48 h, read-out: GI
HCT-15 = experiment: Cytotoxicity against human HCT15 cells at 10 uM after 48 hrs by SRB assay; conditions: HCT-15, 48 h, read-out: GI
HCT-116 = experiment: Cytotoxicity against human HCT116 cells at 10 uM after 48 hrs by SRB assay; conditions: HCT-116, 48 h, read-out: GI
HCC 2998 = experiment: Cytotoxicity against human HCC2998 cells at 10 uM after 48 hrs by SRB assay; conditions: HCC 2998, 48 h, read-out: GI
NCI-H522 = experiment: Cytotoxicity against human NCI-H522 cells at 10 uM after 48 hrs by SRB assay; conditions: NCI-H522, 48 h, read-out: GI
NCI-H322M = experiment: Cytotoxicity against human NCI-H322M cells at 10 uM after 48 hrs by SRB assay; conditions: read-out: GI
NCI-H226 = experiment: Cytotoxicity against human NCI-H226 cells at 10 uM after 48 hrs by SRB assay; conditions: NCI-H226, 48 h, read-out: GI
HOP-62 = experiment: Cytotoxicity against human HOP62 cells at 10 uM after 48 hrs by SRB assay; conditions: HOP-62, 48 h, read-out: GI
[1] = Cytotoxicity against human EKVX cells at 10 uM after 48 hrs by SRB assay; conditions: read-out: GI
A549 = experiment: Cytotoxicity against human A549 cells at 10 uM after 48 hrs by SRB assay; conditions: A549, 48 h, read-out: GI
SR = experiment: Cytotoxicity against human SR cells at 10 uM after 48 hrs by SRB assay; conditions: read-out: GI
MOLT-4 = experiment: Cytotoxicity against human MOLT4 cells at 10 uM after 48 hrs by SRB assay; conditions: MOLT-4, 48 h, read-out: GI
RPMI-8226 = experiment: Cytotoxicity against human RPMI8226 cells at 10 uM after 48 hrs by SRB assay; conditions: RPMI-8226, 48 h, read-out: GI
HL-60(TB) = experiment: Cytotoxicity against human HL-60(TB) cells at 10 uM after 48 hrs by SRB assay; conditions: HL-60, 48 h, read-out: GI

For `C=CCn1c(C)nc2cc(Nc3nc(N4CCOCC4)nc4ccccc34)ccc21`, the inhibition of growth at 10 µM (MDA-MB-468) was < 10%, the inhibition of growth at 10 µM (BT-549) was < 10% and the inhibition of growth at 10 µM (T47D) was < 10%. For the same compound, the inhibition of growth at 10 µM (MCF7) was < 10%, the inhibition of growth at 10 µM (DU-145) was < 10% and the inhibition of growth at 10 µM (UO-31) was < 10%. The inhibition of growth at 10 µM (PC-3) was 11.9%, the inhibition of growth at 10 µM (TK-10) was < 10% and the inhibition of growth at 10 µM (RXF 393) was < 10%. The inhibition of growth at 10 µM (CAKI-1) was < 10%, the inhibition of growth at 10 µM (ACHN) was < 10% and the inhibition of growth at 10 µM (A498) was 20.7%. The inhibition of growth at 10 µM (786-0) was < 10%, the inhibition of growth at 10 µM (NCI/ADR-RES) was < 10% and the inhibition of growth at 10 µM (OVCAR-4) was < 10%. For the same compound, the inhibition of growth at 10 µM (OVCAR-3) was < 10%, the inhibition of growth at 10 µM (UACC-62) was < 10% and the inhibition of growth at 10 µM (UACC-257) was < 10%. The inhibition of growth at 10 µM (SK-MEL-28) was < 10%, the inhibition of growth at 10 µM (SK-MEL-5) was < 10% and the inhibition of growth at 10 µM (SK-MEL-2) was < 10%. The inhibition of growth at 10 µM (M14) was < 10%, the inhibition of growth at 10 µM (LOX IMVI) was < 10% and the inhibition of growth at 10 µM (SNB-19) was < 10%. For the same compound, the inhibition of growth at 10 µM (SF-295) was < 10%, the inhibition of growth at 10 µM (SF-539) was < 10% and the inhibition of growth at 10 µM (SF-268) was < 10%. For the same compound, the inhibition of growth at 10 µM (SW-620) was < 10%, the inhibition of growth at 10 µM (HT-29) was < 10% and the inhibition of growth at 10 µM (HCT-15) was < 10%. The inhibition of growth at 10 µM (HCT-116) was < 10%, the inhibition of growth at 10 µM (HCC 2998) was < 10% and the inhibition of growth at 10 µM (NCI-H522) was < 10%. The inhibition of growth at 10 µM (NCI-H322M) was < 10%, the inhibition of growth at 10 µM (NCI-H226) was < 10% and the inhibition of growth at 10 µM (HOP-62) was < 10%. The inhibition of growth at 10 µM [1] was < 10%, the inhibition of growth at 10 µM (A549) was < 10% and the inhibition of growth at 10 µM (SR) was < 10%. For the same compound, the inhibition of growth at 10 µM (MOLT-4) was < 10%, the inhibition of growth at 10 µM (RPMI-8226) was 13.4% and the inhibition of growth at 10 µM (HL-60(TB)) was 13.5%.
With `C=CCn1c(C)nc2cc(Nc3nc(N4CCCC4)nc4ccccc34)ccc21` the inhibition of growth at 10 µM (MDA-MB-468) was 13.3%, the inhibition of growth at 10 µM (BT-549) was < 10% and the inhibition of growth at 10 µM (T47D) was 22.6%. For the same compound, the inhibition of growth at 10 µM (MCF7) was < 10%, the inhibition of growth at 10 µM (DU-145) was < 10% and the inhibition of growth at 10 µM (UO-31) was 10.1%. For the same compound, the inhibition of growth at 10 µM (PC-3) was 18.2%, the inhibition of growth at 10 µM (TK-10) was < 10% and the inhibition of growth at 10 µM (RXF 393) was < 10%. For the same compound, the inhibition of growth at 10 µM (CAKI-1) was 10.2%, the inhibition of growth at 10 µM (ACHN) was < 10% and the inhibition of growth at 10 µM (A498) was 27.6%. The inhibition of growth at 10 µM (786-0) was 11.1%, the inhibition of growth at 10 µM (NCI/ADR-RES) was < 10% and the inhibition of growth at 10 µM (OVCAR-4) was < 10%. For the same compound, the inhibition of growth at 10 µM (OVCAR-3) was < 10%, the inhibition of growth at 10 µM (UACC-62) was < 10% and the inhibition of growth at 10 µM (UACC-257) was < 10%. The inhibition of growth at 10 µM (SK-MEL-28) was < 10%, the inhibition of growth at 10 µM (SK-MEL-5) was < 10% and the inhibition of growth at 10 µM (SK-MEL-2) was < 10%. For the same compound, the inhibition of growth at 10 µM (M14) was < 10%, the inhibition of growth at 10 µM (LOX IMVI) was < 10% and the inhibition of growth at 10 µM (SNB-19) was < 10%. For the same compound, the inhibition of growth at 10 µM (SF-295) was < 10%, the inhibition of growth at 10 µM (SF-539) was < 10% and the inhibition of growth at 10 µM (SF-268) was < 10%. For the same compound, the inhibition of growth at 10 µM (SW-620) was < 10%, the inhibition of growth at 10 µM (HT-29) was < 10% and the inhibition of growth at 10 µM (HCT-15) was < 10%. The inhibition of growth at 10 µM (HCT-116) was < 10%, the inhibition of growth at 10 µM (HCC 2998) was < 10% and the inhibition of growth at 10 µM (NCI-H522) was < 10%. For the same compound, the inhibition of growth at 10 µM (NCI-H322M) was < 10%, the inhibition of growth at 10 µM (NCI-H226) was 22% and the inhibition of growth at 10 µM (HOP-62) was < 10%. The inhibition of growth at 10 µM [1] was < 10%, the inhibition of growth at 10 µM (A549) was 10.1% and the inhibition of growth at 10 µM (SR) was 11%. For the same compound, the inhibition of growth at 10 µM (MOLT-4) was < 10%, the inhibition of growth at 10 µM (RPMI-8226) was 12.2% and the inhibition of growth at 10 µM (HL-60(TB)) was < 10%.
